These results are taken from patent US5550110A, “Endothelin Antagonists II” (Warner-Lambert Company, priority 1994, dated 1996).

Peptide text beside a SMILES is read from it.

The target of experiment [1] is T1, rat recombinant ETB receptor (CHO cells) (Rattus norvegicus, UniProt P21451).
T1 construct: expressed in transfected cells; host or cells: CHO cells
T1 sequence (P21451 27-442): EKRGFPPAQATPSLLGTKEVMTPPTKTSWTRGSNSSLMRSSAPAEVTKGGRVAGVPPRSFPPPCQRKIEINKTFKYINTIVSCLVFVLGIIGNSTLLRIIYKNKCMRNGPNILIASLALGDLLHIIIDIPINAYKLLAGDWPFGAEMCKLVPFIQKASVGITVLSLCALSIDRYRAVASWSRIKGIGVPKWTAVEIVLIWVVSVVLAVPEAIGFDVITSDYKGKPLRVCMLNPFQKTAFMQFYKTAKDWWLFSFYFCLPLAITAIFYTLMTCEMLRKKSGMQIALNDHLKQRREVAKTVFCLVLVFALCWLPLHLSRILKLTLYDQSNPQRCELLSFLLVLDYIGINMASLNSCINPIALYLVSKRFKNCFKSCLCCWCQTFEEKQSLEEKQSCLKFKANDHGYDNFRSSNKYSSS
Kind of experiment: Inhibition of ET-1 stimulated arachidonic acid release (AAR-B). The class given is cell-based. To be noted: ET-1 0.3 nM. Here is the method: (§1) In Vitro Inhibition of ET-1 Stimulated Arachidonic Acid Release in Cultured Rabbit Vascular Smooth Muscle Cells (AAR-A) or CHO Cells Expressing Rat Recombinant ETB Receptor (AAR-B) by Compounds of Formula I
(§2) Antagonist activity is measured by the ability of added compounds to reduce endothelin-stimulated arachidonic acid release in cultured vascular smooth muscle cells as arachidonic acid release (AAR). [^3 H] Arachidonic Acid Loading Media (LM) is DME/F12+0.5% fetal calf serum (FCS)×0.25 mCi/mL [^3 H] arachidonic acid (Amersham). Confluent monolayers of cultured rabbit renal artery vascular smooth muscle cells (AAR-A) or CHO cells expressing rat recombinant ETB receptor (AAR-B) were incubated in 0.5 mL of the LM over 18 hours, at 37° C., in 5% CO2. The LM was aspirated and the cells were washed once with the assay buffer (Hank's balanced salt solution [BSS]+10 mM HEPES+fatty acid-free BSA (1 mg/mL)), and incubated for 5 minutes with 1 mL of the prewarmed assay buffer. This solution was aspirated, followed by an additional 1 mL of prewarmed assay buffer, and further incubated for another 5 minutes. A final 5-minute incubation was carried out in a similar manner. The same procedure was repeated with the inclusion of 10 μL of the test compound (1 nM to 1 μM) and 10 μL ET-1 (0.3 nM) and the incubation was extended for 30 minutes. This solution was then collected, […] of scintillation cocktail was added, and the amount of [^3 H] arachidonic acid was determined in a liquid scintillation counter.

Experiment [2] concerns ETA (rabbit femoral artery). To be noted: ET-1 as agonist, endothelium-denuded rings. The source says:
(§3) In Vitro Antagonism of ET-1 Stimulated Vasoconstriction in the Rabbit Femoral Artery (ETA) and Sarafotoxin 6c Stimulated Vasoconstriction in the Rabbit Pulmonary Artery (ETB)
(§4) Male New Zealand rabbits were killed by cervical dislocation and exsanguination. Femoral and pulmonary arteries were isolated, cleaned of connective tissue, and cut into 4-mm rings. The endothelium was denuded by placing the rings over hypodermic tubing (32 guage for femoral rings and 28 guage for pulmonary rings, Small Parts, Inc, Miami, Fla.) and gently rolling them. Denuded rings were mounted in 20 mL organ baths containing Krebs-bicarbonate buffer (composition in mM: NaCl, 118.2; NaHCO3, 24.8; KCl, 4.6; MgSO4 7.H2 O, 1.2; KH2 PO4, 1.2; CaCl2.2H2 O; Ca--Na2 EDTA, 0.026; dextrose, 10.0), that was maintained at 37° C. and gassed continuously with 5% CO2 in oxygen (pH 7.4). Resting tension was adjusted to 3.0 g for femoral and 4.0 g pulmonary arteries; the rings were left for 90 minutes to equilibrate.

Experiment [3] deals with T2, endothelin receptor (ETB), rat cerebellar membranes (Rattus norvegicus, UniProt P21451).
T2 construct: thaw one aliquot of frozen rat cerebellar membranes (2 mg protein in 0.5 mL); from tissue; host or cells: rat cerebellum (membranes)
T2 sequence (P21451 27-442): T1 sequence (P21451 27-442)
Kind of experiment: Endothelin Receptor Binding Assay-B (ERBA-B), [125I]-ET-1 binding in rat cerebellar membranes. The following applies: [125I]-ET-1 25 pM, read-out: ERRA-B IC50. As for the experimental part:
Endothelin Receptor Binding Assay-B (ERBA-B) [^125 I]-ET-1 Binding in Rat Cerebellar Membranes
The tissue is made up of 20 mM tris(hydroxymethyl)aminomethane hydrochloride (Trizma) buffer, 2 mM ethylenediaminetetra acetate, 100 μM phenylmethylsulfonyl fluoride.
First, thaw one aliquot of frozen rat cerebellar membranes (2 mg protein in 0.5 mL). Next, add 0.5 mL membrane aliquot to 4.5 mL cold tissue buffer, polytron at 7,500 revolutions per minute for 10 seconds. Finally, dilute tissue suspension 1/100 (0.1 mL suspension+9.9 mL tissue buffer), polytron again, and place ice.
Medium 199 with Hank's salts plus 25 mM Hepes+1 mg/mL bovine serum albumin.
Amersham [^125 I]-ET-1 (aliquots of 2×10^6 cpm per […] aliquot of [^125 I]-ET-1 with 5.2 mL dilution buffer, place on ice until use (final concentration will be 20,000 cpm per tube, or 25 pM).
Add 50 μL each of cold [^125 ]-ET-1 and competing ligand to tubes on ice. Mix in 150 μL of tissue to each tube, vortex briefly, then tap to force all liquids to bottom (total assay volume=250 μL). Then place the tubes in a 37° C. water bath for 2 hours.
Add 2.5 mL cold wash buffer (50 mM Trizma buffer) to each tube, filter, and then wash tube with additional 2.5 mL wash buffer and add to filter. Finally, wash filters with an additional 2.5 mL of cold wash buffer.
Count filters for radioactivity in gamma counter.

The test system of experiment [4] is endothelin receptor, cultured rabbit renal artery vascular smooth muscle cells. Kind of experiment: Inhibition of ET-1 stimulated arachidonic acid release (AAR-A). In kind it is cell-based. The following applies: ET-1 0.3 nM. Here is the method: as §1, §2
Experiment [5] deals with endothelin receptor (ETA), rabbit renal artery vascular smooth muscle cells. Briefly: Endothelin Receptor Binding Assay-A (ERBA-A), intact cell binding of [125I]-ET-1. To be noted: [125I]-ET-1 25 pM. Here is the method: The compounds of Formula I are valuable antagonists of endothelin. […] Thus, the compounds of Formula I were tested for their ability to inhibit [^125 I]-ET-1([^125 I]-Endothelin-1) binding in a receptor assay according to the following procedures: Endothelin Receptor Binding Assay-A (ERBA-A) Intact Cell Binding of [^125 I]-ET-1 The cells used were rabbit renal artery vascular smooth muscle cells grown in a 48-well dish (1 cm^2) (confluent cells). The assay buffer was a medium 199 containing Hanks salts and 25 mM Hepes buffer (Gibco 380-2350AJ), supplemented with penicillin/streptomycin/fungizone (0.5%) and bovine serum albumin (1 mg/mL). Amersham radioiodinated endothelin-1 [^125 I]-ET-1 was used at final concentration of 20,000 cpm/0.25 mL (25 pM). […] Second, remove the assay buffers, place the dish on ice, and add 150 μL of cold assay buffer described above to each well. Third, add […] each of cold [^125 I]-ET-1 and competing ligand to the solution (at the same time if possible). Next, place dish in a 37° C. water bath for about 2 hours and gently agitate the dish every 15 minutes. Discard the radioactive incubation mixture in the sink and wash wells 3 times with 1 mL of cold phosphate buffered saline. Last, add […] of 0.25 molar sodium hydroxide, agitate for 1 hour on a rotator, and then transfer the sodium hydroxide extract to gamma counting tubes and count the radioactivity.

The target of experiment [6] is ETB (rabbit pulmonary artery) (Oryctolagus cuniculus, UniProt Q9N0W7).
ETB (rabbit pulmonary artery), sequence (Q9N0W7 27-441): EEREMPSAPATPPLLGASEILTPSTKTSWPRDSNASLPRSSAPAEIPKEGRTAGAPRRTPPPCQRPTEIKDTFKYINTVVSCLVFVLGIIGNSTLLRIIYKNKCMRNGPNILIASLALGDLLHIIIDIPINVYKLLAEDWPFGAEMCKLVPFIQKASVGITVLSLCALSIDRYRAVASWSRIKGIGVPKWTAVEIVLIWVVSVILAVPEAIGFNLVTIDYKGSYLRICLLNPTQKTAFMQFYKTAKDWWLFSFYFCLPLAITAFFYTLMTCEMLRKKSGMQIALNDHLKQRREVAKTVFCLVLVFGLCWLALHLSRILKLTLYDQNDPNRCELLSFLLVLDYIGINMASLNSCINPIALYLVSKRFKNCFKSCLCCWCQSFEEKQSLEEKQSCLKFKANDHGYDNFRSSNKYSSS
From the text: as §3, §4

The target in experiment [7] is T3, ETB (porcine pulmonary arteries) (Sus scrofa, UniProt P35463).
T3 construct: host or cells: isolated, endothelium-intact porcine pulmonary arteries
T3 sequence (P35463 27-443): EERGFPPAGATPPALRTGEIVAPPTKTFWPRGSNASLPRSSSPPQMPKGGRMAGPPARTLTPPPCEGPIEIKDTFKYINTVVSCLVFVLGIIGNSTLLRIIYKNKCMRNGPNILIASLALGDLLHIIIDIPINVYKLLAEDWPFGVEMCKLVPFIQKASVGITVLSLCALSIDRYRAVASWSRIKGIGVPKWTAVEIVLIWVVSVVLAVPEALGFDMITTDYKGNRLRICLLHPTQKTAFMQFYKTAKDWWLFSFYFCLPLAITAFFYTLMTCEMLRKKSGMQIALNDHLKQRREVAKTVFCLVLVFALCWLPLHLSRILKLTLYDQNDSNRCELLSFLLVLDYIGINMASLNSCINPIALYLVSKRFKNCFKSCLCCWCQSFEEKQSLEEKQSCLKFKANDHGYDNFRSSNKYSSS
To be noted: isolated, endothelium-intact porcine pulmonary arteries; cited from earlier work.

Turning to `CC[C@H](C)[C@H](NC(=O)[C@H](CC(=O)O)NC(=O)[C@H](CC(C)C)NC(=O)[C@H](N)C1c2ccccc2CCc2ccccc21)C(=O)N[C@H](C(=O)N[C@@H](Cc1c[nH]c2ccccc12)C(=O)O)[C@@H](C)CC` [Example 2, D-Bhg-Leu-Asp-Ile-Ile-Trp] (HELM PEPTIDE1{[N[C@@H](C(=O)[*:2])C1c2ccccc2CCc2ccccc21].L.D.I.I.W}$$$$V2.0), the 50% inhibitory concentration (IC50) (in general, the concentration that inhibits the measured activity by half) turned out to be 9600 nM in experiment [1], 2100 nM in experiment [3], 100 nM in experiment [4] and 450 nM in experiment [5]. The “pA2 Femoral” value in experiment [2] worked out at 5.7.

As for `CC[C@H](C)[C@H](NC(=O)[C@H](CC(=O)O)NC(=O)[C@H](CC(C)C)NC(=O)[C@H](NC(C)=O)C1c2ccccc2C=Cc2ccccc21)C(=O)N[C@H](C(=O)N[C@@H](Cc1c[nH]c2ccccc12)C(=O)O)[C@@H](C)CC` [Example 6, Ac-D-Bheg-Leu-Asp-Ile-Ile-Trp] (HELM PEPTIDE1{[ac].[O=C([C@H](N[*:1])C1c2ccccc2C=Cc2ccccc21)[*:2]].L.D.I.I.W}$$$$V2.0), the IC50 in experiment [1] amounted to 17 nM; in experiment [3] it was 19 nM; in experiment [4], 3 nM; in experiment [5], 5 nM. Moreover, the “pA2 Femoral” value in experiment [2] turned out to be 6.8. For the same compound, the Kb in experiment [6] is 39.8 nM.

`CC[C@H](C)[C@H](NC(=O)[C@H](CC(=O)O)NC(=O)[C@H](CCCN)NC(=O)[C@H](NC(C)=O)C1c2ccccc2CCc2ccccc21)C(=O)N[C@H](C(=O)N[C@@H](Cc1c[nH]c2ccccc12)C(=O)O)[C@@H](C)CC` [Example 7, Ac-D-Bhg-Orn-Asp-Ile-Ile-Trp] (HELM PEPTIDE1{[ac].[O=C([C@H](N[*:1])C1c2ccccc2CCc2ccccc21)[*:2]].[Orn].D.I.I.W}$$$$V2.0): the “pA2 Femoral” value in experiment [2] was found to be 6.5. Further, the half-maximal inhibitory concentration (IC50) in experiment [3] came out at 1500 nM; in experiment [4], 37 nM; in experiment [5] it was 22 nM.

As to `CC[C@H](C)[C@H](NC(=O)[C@H](CC(=O)O)NC(=O)[C@H](CCC(=O)O)NC(=O)[C@H](NC(C)=O)C1c2ccccc2CCc2ccccc21)C(=O)N[C@H](C(=O)N[C@@H](Cc1c[nH]c2ccccc12)C(=O)O)[C@@H](C)CC` [Example 8, Ac-D-Bhg-Glu-Asp-Ile-Ile-Trp] (HELM PEPTIDE1{[ac].[O=C([C@H](N[*:1])C1c2ccccc2CCc2ccccc21)[*:2]].E.D.I.I.W}$$$$V2.0), the IC50 stood at 27 nM in experiment [1], 22 nM in experiment [3], 7 nM in experiment [4] and 5.5 nM in experiment [5]. The “pA2 Femoral” value in experiment [2] was found to be 6.5. The Kb in experiment [6] was 100 nM.

With “ET[1,3,11,15-Ala]: linear ET analog, reported selective ETB agonist (ASASSLMDKEAVYFAHLDIIW; Endothelin-1; UniProt P05305 53-73, looked up, variant C1A C3A C11A C15A)”, the “effect on vascular tone” value in experiment [7] is on record as “caused vasorelaxation”.

Take ET[6-21, 1,3,11,15-Ala]: the “effect on vascular tone” value in experiment [7] is “caused vasorelaxation”.

As for ET[8-21,11,15-Ala], in experiment [7], the “effect on vascular tone” value was “caused vasorelaxation”.

With N-Acetyl-ET[10-21,11,15-Ala], the “effect on vascular tone” value in experiment [7] is recorded as “caused vasorelaxation”.
